Test results: PubChem BioAssay AID2060325 (Molecular Pharmacology Branch, DTP, NCI, 2025)

Tested on: SK-OV-3 multi-cell spheroids, viability
Assay: Anticancer human tumor SK-OV-3 cell line growth inhibition [IpAb];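 on viability, T/C: viability read after seven days of drug exposure; percent of DMSO vehicle control luminescence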
Conditions: for IC50: curve of first compound; for viability, T/C: stronger effect = lower value
Outline: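 Multi-cell spheroids of 60% tumour cells, 25% HUVEC and 15% MSC in ultra-low-attachment U-bottom wells, treated with agents combined with ipatasertib or abemaciclib. Half-log ranges top out near clinical Cmax, or 10 microM when Cmax is unknown.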

**Q.** For `CC(=O)c1c(C)c2cnc(Nc3ccc(N4CCNCC4)cn3)nc2n(C2CCCC2)c1=O` + CCN1CCN(Cc2ccc(Nc3ncc(F)c(-c4cc(F)c5nc(C)n(C(C)C)c5c4)n3)nc2)CC1, which IC50 (second compound 0.01 µM) is on record?
**A.** 274 nM

**Q.** And the IC50 (second compound 0.0316 µM)?
**A.** 63.1 nM

**Q.** And the IC50 (second compound 0.1 µM)?
**A.** 8.82 nM

**Q.** And the IC50 (second compound 0.316 µM)?
**A.** 2.61 nM

**Q.** And the IC50 (second compound 1 µM)?
**A.** < 0.949 nM

**Q.** What about the viability, T/C (second compound 0.01 µM, first compound 0.000949 µM) of the same compound?
**A.** 79.7%

**Q.** And the viability, T/C (second compound 0.01 µM, first compound 0.003 µM)?
**A.** 77.4%

**Q.** And the viability, T/C (second compound 0.01 µM, first compound 0.00949 µM)?
**A.** 66%

**Q.** What about the viability, T/C (second compound 0.01 µM, first compound 0.03 µM) of the same compound?
**A.** 57.5%

**Q.** And the viability, T/C (second compound 0.01 µM, first compound 0.0949 µM)?
**A.** 53.3%

**Q.** What about the viability, T/C (second compound 0.01 µM, first compound 0.3 µM) of the same compound?
**A.** 48.9%

**Q.** And the viability, T/C (second compound 0.0316 µM, first compound 0.000949 µM)?
**A.** 68%

**Q.** And the viability, T/C (second compound 0.0316 µM, first compound 0.003 µM)?
**A.** 62.5%

**Q.** What about the viability, T/C (second compound 0.0316 µM, first compound 0.00949 µM) of the same compound?
**A.** 56.5%

**Q.** What about the viability, T/C (second compound 0.0316 µM, first compound 0.03 µM) of the same compound?
**A.** 50.9%

**Q.** And the viability, T/C (second compound 0.0316 µM, first compound 0.0949 µM)?
**A.** 49.1%

**Q.** And the viability, T/C (second compound 0.0316 µM, first compound 0.3 µM)?
**A.** 46.7%

**Q.** And the viability, T/C (second compound 0.1 µM, first compound 0.000949 µM)?
**A.** 57.7%

**Q.** And the viability, T/C (second compound 0.1 µM, first compound 0.003 µM)?
**A.** 52.3%

**Q.** What about the viability, T/C (second compound 0.1 µM, first compound 0.00949 µM) of the same compound?
**A.** 51.8%

**Q.** And the viability, T/C (second compound 0.1 µM, first compound 0.03 µM)?
**A.** 46.9%

**Q.** And the viability, T/C (second compound 0.1 µM, first compound 0.0949 µM)?
**A.** 40.5%

**Q.** What about the viability, T/C (second compound 0.1 µM, first compound 0.3 µM) of the same compound?
**A.** 42%

**Q.** And the viability, T/C (second compound 0.316 µM, first compound 0.000949 µM)?
**A.** 51.5%

**Q.** And the viability, T/C (second compound 0.316 µM, first compound 0.003 µM)?
**A.** 49%

**Q.** What about the viability, T/C (second compound 0.316 µM, first compound 0.00949 µM) of the same compound?
**A.** 51%

**Q.** And the viability, T/C (second compound 0.316 µM, first compound 0.03 µM)?
**A.** 45.6%

**Q.** What about the viability, T/C (second compound 0.316 µM, first compound 0.0949 µM) of the same compound?
**A.** 45.5%

**Q.** And the viability, T/C (second compound 0.316 µM, first compound 0.3 µM)?
**A.** 46.8%

**Q.** What about the viability, T/C (second compound 1 µM, first compound 0.000949 µM) of the same compound?
**A.** 41.4%

**Q.** What about the viability, T/C (second compound 1 µM, first compound 0.003 µM) of the same compound?
**A.** 43.1%

**Q.** And the viability, T/C (second compound 1 µM, first compound 0.00949 µM)?
**A.** 42.3%

**Q.** And the viability, T/C (second compound 1 µM, first compound 0.03 µM)?
**A.** 35.9%

**Q.** What about the viability, T/C (second compound 1 µM, first compound 0.0949 µM) of the same compound?
**A.** 39.2%

**Q.** And the viability, T/C (second compound 1 µM, first compound 0.3 µM)?
**A.** 42.4%
